Experimental data from patent US9562053B2, “Benzo-fused heterocyclic derivatives useful as agonists of GPR120” (Janssen Pharmaceutica NV, priority 2013, dated 2017).

Molecular target: T1, Human GPR120 short form (Homo sapiens, UniProt Q5NUL3)
T1 construct: expressed in transfected cells
T1 sequence (Q5NUL3 1-361): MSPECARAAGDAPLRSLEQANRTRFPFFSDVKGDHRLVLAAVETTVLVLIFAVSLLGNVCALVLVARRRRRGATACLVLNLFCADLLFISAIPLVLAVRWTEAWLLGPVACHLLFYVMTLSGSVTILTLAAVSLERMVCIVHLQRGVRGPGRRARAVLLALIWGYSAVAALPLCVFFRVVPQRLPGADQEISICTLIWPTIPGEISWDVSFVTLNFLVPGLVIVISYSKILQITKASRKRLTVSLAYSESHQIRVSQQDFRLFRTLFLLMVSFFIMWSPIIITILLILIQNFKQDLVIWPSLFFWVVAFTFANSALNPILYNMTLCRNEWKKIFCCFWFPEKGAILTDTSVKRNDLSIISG
Assay: Human GPR120 in Calcium Flux Assay, Procedure Calcium B (4200 cells/well)
Type: cell-based
From the text: This in vitro assay serves to assess test compound agonist activity against the short splice variant (SVS with Accession number NM_001195755.1 confirmed by sequencing data) of the GPR120 receptor. The Human Short splice variant #2 (NM_001195755.1) is missing an in-frame coding exon compared to variant 1 (the Human Long splice variant NM_181745.3), resulting in a shorter isoform (GPR120-S) lacking a 16 aa protein segment compared to isoform GPR120-L. The assay platform utilizes HEK-293 cells stably transfected to express the Human GPR120 short form. These cells are first loaded with the Ca^+2 sensitive dye, Fluo-4 NW. Upon stimulation, intracellular released Ca^+2 can bind to the dye and alter its fluorescence intensity. This increase in fluorescence signal, and thus the flux in intracellular [Ca^+2], is detected and quantitated by fluorescence imaging using a FLIPR reader. The effect of the agonist is measured as a function of concentration and used to calculate an EC50 based upon a response curve.
In this procedure 4200 cells/well were employed.
A Human GPR120 clone (Genbank accession number NM_001195755.1) was placed into the pcDNA3.1 mammalian expression vector carrying the neomycin resistance gene. A stable mammalian cell was generated by placing the above clone into a HEK293 background. Clonal cells responding to long chain fatty acids had expression levels of GPR120 confirmed by RT-qPCR. Human HEK-GPR120 cells were cultured in Dulbecco's Modified Eagle's Medium (DMEM)/F12 medium supplemented with 10% fetal bovine serum (FBS), 1% L-Glutamine and 1% penicillin/streptomycin and 0.5 mg/ml G-418. Cells were split 2 times a week to keep the cells in the log-phase growth.
In preparation for the assay, HEK cells stably transfected with Human GPR120 (2.5K cells per well in 25 uL growth medium) were seeded into 384-well plates and then incubated overnight (37° C., 5% CO2). The next day, the media was changed to 20 μl assay buffer and the cell starved for 1 h at 37° C. The dye loading solution (2× dye) was prepared using 10 ml assay buffer, 100 μl of 250 mM probenecid, 1 bottle of Component A, and 20 μl of dye in DMSO. Twenty μl of the 2× dye loading buffer was then added to each well. The plates were incubated at 37° C. for 30 min, then at room temperature for an additional 15 minutes, before performing the assay on FLIPR.
Test compounds were prepared in assay buffer (2 μl of test compound+198 μl assay buffer, final DMSO in assay plate is 0.2%) at the desired concentration, more particularly at 100 μM, 50 μM, 25 μM, 12.5 μM, 6.25 μM, 3.125 μM, 1.562 μM, 0.781 μM, 0.391 μM, 0.195 μM, 0.098 μM, 0.049 μM, 0.024 μM and 0.012 μM.
The assay was performed on a FLIPR plate reader using the following parameters. Baseline was read for 10 seconds at 1 sec intervals. The program was set to transfer 10 μL of ligand from compound plate to cell plate after baseline reading. Aspiration was executed at: 10 μl/sec speed, 4.6 μl height; Dispensing was executed at: 30 μl/sec speed, 45 μl height. After compound addition, each well was read for 300 sec, with measurements collected at 1 sec intervals.
The kinetic data from the FLIPR was based upon a 5 minute window for data collection. The fluorescence of each sample well was used for individual calculations of a normalized RFU value, which was defined as maximum response minus the minimum response. The normalized fluorescence reading (RFU) was calculated as follows: RFU=Fmax−Fmin
The data were fitted to a sigmoidal dose-response curve with a variable Hill slope (<2) using nonlinear regression with GraphPad Prism 5.0 to calculate the EC50 values. The Fitting Equation was: Y=Bottom+(Top−Bottom)/(1+10^((LogEC50−X)*HillSlope)), where X is the log of the concentration and Y is the response.

EC50: 12 nM
SMILES: Cc1cc2cc(OC(F)(F)F)cc(COc3ccc(CCC(=O)O)c(C)c3C)c2o1 [Compound 36, 3-(2,3-Dimethyl-4-{[2-methyl-5-(trifluoromethoxy)-1-benzofuran-7-yl]methoxy}phenyl)propanoic acid]
